In one assay the test system is BxPC-3 cells. In words: Cell viability assay (CellTiter Glo). As to conditions: Homo sapiens, 72 h. The assay is classed as cell-based. Here is the method: BxPC-3 cells were grown in RPMI 1640 containing 10% FBS, 100 U/ml penicillin/streptomycin, 2 mM glutamine. All media and supplements were from Sigma-Aldrich. Cultures were routinely tested for Mycoplasma contamination. Treatments (Olaparib and BRCA2-Rad51 disruptors) were administered in culture medium supplemented with 0.6% DMSO. The same amount of DMSO was added to the control, untreated cultures.
Cell viability was assessed by CellTiter Glo, Luminescent Cell Viability Assay. Briefly, BxPC-3 cells (1×10^4/well) were plated in white 96-well plates with clear bottom and treated for 72 h with olaparib (10 μM) or with the BRCA2-Rad51 disruptors, given alone or in combination. After treatments, the plate was allowed to equilibrate at room temperature for 30 min and the CellTiter-Glo reactive was directly added to each well. The plate was kept on a shaker for 2 min to induce cell lysis and its luminescence was measured by using a Fluoroskan Ascent FL reader (Labsystems) using manufacturer's instructions.
(In general: In ATP-based viability assays light output follows the ATP content of the culture.)

The target in a further assay is T1, BRC4/RAD51 interaction (Homo sapiens, UniProt Q06609).
T1 construct: purchased Creative Biomart (Rad51); Life Technologies (BRC4 peptide)
T1 sequence (Q06609 1-339): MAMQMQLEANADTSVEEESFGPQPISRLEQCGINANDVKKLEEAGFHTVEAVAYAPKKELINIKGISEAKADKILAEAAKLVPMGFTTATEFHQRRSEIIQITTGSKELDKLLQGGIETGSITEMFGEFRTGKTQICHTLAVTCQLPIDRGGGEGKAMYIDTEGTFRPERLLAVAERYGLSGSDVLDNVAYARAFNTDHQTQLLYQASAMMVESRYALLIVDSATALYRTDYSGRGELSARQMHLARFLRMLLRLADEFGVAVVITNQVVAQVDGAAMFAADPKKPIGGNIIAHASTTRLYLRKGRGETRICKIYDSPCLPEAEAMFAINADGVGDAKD
In words: Competitive ELISA assay, disruption of BRC4/RAD51 interaction. As to conditions: human Rad51, biotinylated BRC4 peptide. In kind it is binding. How it is done: A competitive ELISA screening assay using biotinylated BRC4 peptide to disrupt the BRC4/RAD51 interaction was performed by modifying the method described by Rajendra et al. (Nucleic Acids Res. 38 (2010) 82-96). BRC4-biotinylated peptide (N-term Biotin[…] from Life Technologies) was used to coat 384-well plates (Nunc). After washing with PBS containing 0.05% Tween-20 (PBST), and blocking with the solution BSA 1%/PBST, overnight hybridization with human Rad51 protein (NP_002866 Creative Biomart, NY) was performed. Test compounds were added in dose-response from […] in triplicate with constant DMSO 1%. Antibody raised against Rad51 (Millipore) and HRP-secondary antibody staining to develop the 3,30,5,50-tetramethyllbenzidine signal (Sigma) quenched with 1M HCl was used as the assay readout. Colorimetric measure was read on Victor5 (PerkinElmer) plate Reader. BRC4 and Rad51 were included in the assay as positive control. Results were analyzed using GraphPad Software.

The text below walks through data of patent US12459914B2, “Compounds and compositions for the treatment of tumors” (FONDAZIONE ISTITUTO ITALIANO DI TECNOLOGIA, priority 2019, dated 2025).

Structures are written as SMILES. pEC50: −log10 of the molar value. Where only a bound is given, the exact number is not on record here.

As to `O=C(O)CCC(=O)N1N=C(c2c(Cc3ccccc3)c3cc(Cl)ccc3[nH]c2=O)CC1c1ccc(F)cc1` (centres unmarked) [d.50, 4-[5-(4-benzyl-6-chloro-2-oxo-1H-quinolin-3-yl)-3-(4-fluorophenyl)-3,4-dihydropyrazol-2-yl]-4-oxo-butanoic acid], the pEC50 (usually the EC50 on a negative log10 scale, so that one unit is a factor of ten) in the assay with BxPC-3 cells was 4.82.
Same read-out and setting: next, `O=C(O)CCC(=O)N1N=C(c2c(Cc3ccccc3)c3cc(Cl)ccc3[nH]c2=O)CC1c1ccc(Br)cc1` (centres unmarked) [d.58, 4-[5-(4-benzyl-6-chloro-2-oxo-1H-quinolin-3-yl)-3-(4-bromophenyl)-3,4-dihydropyrazol-2-yl]-4-oxo-butanoic acid]: 4.63.
For `CCn1ncc2cc(-c3ccc(C4CC(c5c(-c6ccccc6)c6cc(Cl)ccc6[nH]c5=O)=NN4C(=O)CCC(=O)O)cc3)ccc21` (centres unmarked) [d.45, 4-[5-(6-chloro-2-oxo-4-phenyl-1H-quinolin-3-yl)-3-[4-(1-ethylindazol-5-yl)phenyl]-3,4-dihydropyrazol-2-yl]-4-oxo-butanoic acid], the pEC50 on BRC4/RAD51 interaction was 4.82.
For the compound `COc1ccc(C2CC(c3c(CCc4ccccc4)c4cc(Cl)ccc4[nH]c3=O)=NN2C(=O)CCC(=O)O)cc1` (centres unmarked) [d.105, 4-[5-[6-chloro-2-oxo-4-(2-phenylethyl)-1H-quinolin-3-yl]-3-(4-methoxyphenyl)-3,4-dihydropyrazol-2-yl]-4-oxo-butanoic acid], the pEC50 in the assay with BxPC-3 cells was 4.53.
For `CCC(=O)N1N=C(c2c(-c3ccccc3)c3cc(Cl)ccc3[nH]c2=O)CC1c1ccc(F)cc1` (centres unmarked) [d.3, 6-chloro-3-[3-(4-fluorophenyl)-2-propanoyl-3,4-dihydropyrazol-5-yl]-4-phenyl-1H-quinolin-2-one], the negative logarithm of the EC50 (pEC50) on BRC4/RAD51 interaction is 4.47.
Compound `CCCn1cc(-c2ccc(C3CC(c4c(-c5ccccc5)c5cc(Cl)ccc5[nH]c4=O)=NN3C(C)=O)cc2)cn1` (centres unmarked) [d.44, 3-[2-acetyl-3-[4-(1-propylpyrazol-4-yl)phenyl]-3,4-dihydropyrazol-5-yl]-6-chloro-4-phenyl-1H-quinolin-2-one] had a pEC50 at BRC4/RAD51 interaction of 4.34.
At BRC4/RAD51 interaction, `CCC(=O)N1N=C(c2c(-c3ccccc3)c3cc(Cl)ccc3[nH]c2=O)CC1c1ccc(Br)cc1` (centres unmarked) [d.10, 3-[3-(4-bromophenyl)-2-propanoyl-3,4-dihydropyrazol-5-yl]-6-chloro-4-phenyl-1H-quinolin-2-one] gave a pEC50 of 4.72.
Regarding `CCn1ncc2cc(C3CC(c4c(-c5ccccc5)c5cc(Cl)ccc5[nH]c4=O)=NN3C(C)=O)ccc21` (centres unmarked) [d.32, 3-[2-acetyl-3-(1-ethylindazol-5-yl)-3,4-dihydropyrazol-5-yl]-6-chloro-4-phenyl-1H-quinolin-2-one], the negative-log EC50 (pEC50) with BxPC-3 cells was 4.57.
With `CCC(=O)N1N=C(c2c(Cc3ccccc3)c3cc(Cl)ccc3[nH]c2=O)CC1c1ccc(F)cc1` (centres unmarked) [d.54, 4-benzyl-6-chloro-3-[3-(4-fluorophenyl)-2-propanoyl-3,4-dihydropyrazol-5-yl]-1H-quinolin-2-one], at BRC4/RAD51 interaction, the negative-log EC50 (pEC50) is 4.19.
For the compound `COc1ccc(-c2ccc(C3CC(c4c(Cc5ccccc5)c5cc(Cl)ccc5[nH]c4=O)=NN3C(C)=O)cc2)cc1` (centres unmarked) [d.89, 3-[2-acetyl-3-[4-(4-methoxyphenyl)phenyl]-3,4-dihydropyrazol-5-yl]-4-benzyl-6-chloro-1H-quinolin-2-one], the pEC50 at BRC4/RAD51 interaction is 3.98.
Turning to `CC(=O)N1N=C(c2c(-c3ccccc3)c3cc(Cl)ccc3[nH]c2=O)CC1c1ccc(C)cc1` (centres unmarked) [d.49, 3-[2-acetyl-3-(p-tolyl)-3,4-dihydropyrazol-5-yl]-6-chloro-4-phenyl-1H-quinolin-2-one], in the assay on BxPC-3 cells, the pEC50 is 4.82.
For the compound `Cn1ncc2cc(C3CC(c4c(Cc5ccccc5)c5cc(Cl)ccc5[nH]c4=O)=NN3C(=O)CCC(=O)O)ccc21` (centres unmarked) [d.73, 4-[5-(4-benzyl-6-chloro-2-oxo-1H-quinolin-3-yl)-3-(1-methylindazol-5-yl)-3,4-dihydropyrazol-2-yl]-4-oxo-butanoic acid], in the assay on BxPC-3 cells, the pEC50 was 4.09.
The compound `Cn1ccc2cc(C3CC(c4c(Cc5ccccc5)c5cc(Cl)ccc5[nH]c4=O)=NN3C(=O)CCC(=O)O)ccc21` (centres unmarked) [d.69, 4-[5-(4-benzyl-6-chloro-2-oxo-1H-quinolin-3-yl)-3-(1-methylindol-5-yl)-3,4-dihydropyrazol-2-yl]-4-oxo-butanoic acid] showed a negative logarithm of the EC50 (pEC50) at BRC4/RAD51 interaction of 5.00.
Still for that read-out and setting: the result for `O=C(O)CCC(=O)N1N=C(c2c(Cc3ccccc3)c3cc(Cl)ccc3[nH]c2=O)CC1c1cccnc1` (centres unmarked) [d.100, 4-[5-(4-benzyl-6-chloro-2-oxo-1H-quinolin-3-yl)-3-(3-pyridyl)-3,4-dihydropyrazol-2-yl]-4-oxo-butanoic acid] reads 4.82.
As to `CC(=O)N1N=C(c2c(-c3ccccc3)c3cc(Cl)ccc3[nH]c2=O)CC1c1ccc(Cl)cc1` (centres unmarked) [d.6, 3-[2-acetyl-3-(4-chlorophenyl)-3,4-dihydropyrazol-5-yl]-6-chloro-4-phenyl-1H-quinolin-2-one], the pEC50 with BxPC-3 cells was 4.70.
Still for that read-out and setting: the result for `O=C(O)CCC(=O)N1N=C(c2c(-c3ccccc3)c3cc(Cl)ccc3[nH]c2=O)CC1c1ccc(Cl)cc1` (centres unmarked) [d.5, 4-[5-(6-chloro-2-oxo-4-phenyl-1H-quinolin-3-yl)-3-(4-chlorophenyl)-3,4-dihydropyrazol-2-yl]-4-oxo-butanoic acid] reads less than 4.30.
`O=C(O)CCC(=O)N1N=C(c2c(Cc3ccccc3)c3cc(Cl)ccc3[nH]c2=O)CC1c1ccc(-c2ccc(F)cc2)cc1` (centres unmarked) [d.83, 4-[5-(4-benzyl-6-chloro-2-oxo-1H-quinolin-3-yl)-3-[4-(4-fluorophenyl)phenyl]-3,4-dihydropyrazol-2-yl]-4-oxo-butanoic acid] had a negative-log EC50 (pEC50) at BRC4/RAD51 interaction of 4.92.
`COc1ccc(C2CC(c3c(Cc4ccccc4)c4cc(Cl)ccc4[nH]c3=O)=NN2C(C)=O)cc1` (centres unmarked) [d.52, 3-[2-acetyl-3-(4-methoxyphenyl)-3,4-dihydropyrazol-5-yl]-4-benzyl-6-chloro-1H-quinolin-2-one]: the pEC50 with BxPC-3 cells is 4.86.
On the same count and under the same terms, the result for `O=C(O)CCC(=O)N1N=C(c2c(-c3ccccc3)c3cc(Cl)ccc3[nH]c2=O)CC1c1ccc(-c2ccc(Br)cc2)cc1` (centres unmarked) [d.39, 4-[3-[4-(4-bromophenyl)phenyl]-5-(6-chloro-2-oxo-4-phenyl-1H-quinolin-3-yl)-3,4-dihydropyrazol-2-yl]-4-oxo-butanoic acid] reads 4.37; that for `CCC(=O)N1N=C(c2c(-c3ccccc3)c3cc(Cl)ccc3[nH]c2=O)CC1c1ccc(Cl)cc1` (centres unmarked) [d.7, 6-chloro-3-[3-(4-chlorophenyl)-2-propanoyl-3,4-dihydropyrazol-5-yl]-4-phenyl-1H-quinolin-2-one], 4.70.
The compound `COc1ccc(-c2ccc(C3CC(c4c(-c5ccccc5)c5cc(Cl)ccc5[nH]c4=O)=NN3C(C)=O)cc2)cc1` (centres unmarked) [d.42, 3-[2-acetyl-3-[4-(4-methoxyphenyl)phenyl]-3,4-dihydropyrazol-5-yl]-6-chloro-4-phenyl-1H-quinolin-2-one] showed a pEC50 on BRC4/RAD51 interaction of 4.15.
As for `CC(=O)N1N=C(c2c(-c3ccccc3)c3cc(Cl)ccc3[nH]c2=O)CC1c1ccc(F)cc1` (centres unmarked) [d.2, 3-[2-acetyl-3-(4-fluorophenyl)-3,4-dihydropyrazol-5-yl]-6-chloro-4-phenyl-1H-quinolin-2-one], the pEC50 with BxPC-3 cells was 4.43.
On to `COc1ccc(-c2ccc(C3CC(c4c(-c5ccccc5)c5cc(Cl)ccc5[nH]c4=O)=NN3C(=O)CCC(=O)O)cc2)cc1` (centres unmarked) [d.41, 4-[5-(6-chloro-2-oxo-4-phenyl-1H-quinolin-3-yl)-3-[4-(4-methoxyphenyl)phenyl]-3,4-dihydropyrazol-2-yl]-4-oxo-butanoic acid], for which the pEC50 with BxPC-3 cells was 4.39.
